From patent US6858393B1, “Chain terminators for DNA synthesis” (Stratagene California, priority 2002, dated 2005)

System: DNA polymerase (JDF-3 P41OL/A485T)
Experiment: Assay for incorporation of chain terminators (primer extension, denaturing PAGE on ABI 377 sequencer)
Format: biochemical
Settings: for terminator/dNTP ratio giving a similar pattern (signal strength and length): FIG. 8, ddATP lane 2, PME-App lane 3, dNTPs each at 50 μM, 25 cycles
Method: Reactions (20 μl) consisted of 0.5 pmol fluorescein-labeled primer pFI-20, 1 pmol pBluescript II, 5 U DNA polymerase (JDF-3 P41OL/A485T), all four dNTPs (each at 50 μM) and varying concentrations of only ddATP or PME-App in 20 mM Tris pH 8.8, 10 mM (NH4)2SO4, and 2 mM MgSO4. Reactions were incubated in a Perkin-Elmer 9600 for 25 cycles as follows: 95° C. for 30 s, 50° C. for 30 s and 72° C. for 4 min. The reactions were quenched with ice-cold 0.2 M EDTA (final concentration), dried, and the pellets dissolved in a 3:1 formamide: EDTA/blue dextran. Reactions were then analyzed by 6% denaturing PAGE on an ABI 377 sequencer.
The relative ratio can be determined more exactly by repeating the reactions over a narrower range of ratios.

Structure (SMILES) | terminator/dNTP ratio giving a similar pattern (signal strength and length) | relative incorporation efficiency of ddATP versus PME-App (ddATP better than PME-App, from comparison of lane patterns in FIG. 8, all four dNTPs each at 50 μM) [fold]
Nc1ncnc2c1ncn2CCOCP(=O)(O)OP(=O)(O)OP(=O)(O)O [PME-App, PME-adenine diphosphate] | 1/5 | 
Nc1ncnc2c1ncn2[C@H]1CC[C@@H](COP(=O)(O)OP(=O)(O)OP(=O)(O)O)O1 [ddATP] | 1/10 | 2
